Patent US20030199698A1, “Carbamic acid esters as inhibitors of factor xa” (priority 2000, published 2003)

What was measured:
factor Xa, human = factor Xa, human (Homo sapiens, UniProt P00742); test: Inhibition of factor Xa; type: biochemical
Excerpt: The inhibition of factor Xa by the compounds according to the invention and the measurement of the anticoagulant and antithrombotic activity can be determined by conventional in-vitro or in-vivo methods. A suitable method is described, for example, by J. Hauptmann et al. in Thrombosis and Haemostasis 1990, 63, 220-223.
The inhibition of factor Xa can be measured, for example, by the method of T. Hara et al. in Thromb. Haemostas. 1994, 71, 314-319.

TF/VIIa = TF/VIIa (Homo sapiens, UniProt P08709); test: Inhibition of TF/VIIa; type: biochemical
Chain of TF/VIIa (P08709 213-466 limits assumed): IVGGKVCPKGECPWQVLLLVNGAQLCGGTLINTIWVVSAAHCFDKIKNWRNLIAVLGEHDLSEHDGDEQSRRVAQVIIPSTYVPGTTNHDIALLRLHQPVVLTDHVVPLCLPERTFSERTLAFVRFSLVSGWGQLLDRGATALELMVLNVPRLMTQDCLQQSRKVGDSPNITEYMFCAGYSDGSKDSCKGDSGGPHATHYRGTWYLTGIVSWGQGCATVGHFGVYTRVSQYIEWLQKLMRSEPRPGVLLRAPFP
Chain of TF/VIIa (P08709 61-212 limits assumed): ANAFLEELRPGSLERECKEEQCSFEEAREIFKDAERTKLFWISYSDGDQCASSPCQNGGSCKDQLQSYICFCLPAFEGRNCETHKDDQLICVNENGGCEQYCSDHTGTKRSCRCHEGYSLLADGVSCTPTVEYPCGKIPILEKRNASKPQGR
Chain of TF/VIIa (P13726 33-295 partner): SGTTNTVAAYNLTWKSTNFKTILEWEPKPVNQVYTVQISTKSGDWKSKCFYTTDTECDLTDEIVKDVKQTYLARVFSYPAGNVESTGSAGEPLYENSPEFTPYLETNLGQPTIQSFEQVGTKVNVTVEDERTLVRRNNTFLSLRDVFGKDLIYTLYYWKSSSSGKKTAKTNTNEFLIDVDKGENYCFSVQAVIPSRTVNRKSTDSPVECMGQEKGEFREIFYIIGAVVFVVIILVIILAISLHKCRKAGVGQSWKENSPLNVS
Excerpt: The inhibition of factor VIIa by the compounds according to the invention and the measurement of the anticoagulant and antithrombotic activity can be determined by conventional in-vitro or in-vivo methods. A conventional method for the measurement of the inhibition of factor VIIa is described, for example, by H. F. Ronning et al. in Thrombosis Research 1996, 84, 73-81.

Chain of factor Xa, human (P00742 235-488 limits assumed): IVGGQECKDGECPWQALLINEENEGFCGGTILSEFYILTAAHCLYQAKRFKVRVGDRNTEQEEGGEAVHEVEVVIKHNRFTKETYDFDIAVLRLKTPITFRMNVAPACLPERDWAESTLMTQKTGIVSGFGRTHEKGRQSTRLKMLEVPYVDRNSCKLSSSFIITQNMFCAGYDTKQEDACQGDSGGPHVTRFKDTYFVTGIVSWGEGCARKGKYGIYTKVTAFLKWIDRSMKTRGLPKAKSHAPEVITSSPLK
Chain of factor Xa, human (P00742 41-179 limits assumed): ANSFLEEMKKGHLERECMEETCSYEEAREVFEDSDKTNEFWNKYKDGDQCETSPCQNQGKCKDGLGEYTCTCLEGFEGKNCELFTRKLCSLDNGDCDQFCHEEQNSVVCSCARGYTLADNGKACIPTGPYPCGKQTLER

Compound	melting point [°C]	IC50 (factor Xa, human) [nM]	IC50 (TF/VIIa) [nM]
CCCN(Cc1cccc(C(=N)N)c1)C(=O)Oc1ccc(-c2ccccc2S(N)(=O)=O)cc1 [Example 2.3, 2′-aminosulfonylbiphenyl-4-yl (3-amidinobenzyl)propylcarbamate]	119 to 120	450	350
CCCN(Cc1cccc(C(=N)N)c1)C(=O)Oc1ccc(-c2ccccc2S(C)(=O)=O)cc1 [Example 3.3, 2′-methylsulfonylbiphenyl-4-yl (3-amidinobenzyl)propylcarbamate]	–	340	130
